Like-named read-outs stand apart in the source and are kept apart here. Marks after values point to notes of the source that are not given here. Values belong to the molecule of their own block, whether it stands above or below them.
Legend:
[1] = system: DNA of MDA-MB-231 cell line; assay: DNA-bound Pt(II) by ICP-MS; assay type: cell-based, human
Description: First, 200,000 cells/well were seeded in the complete medium in a 12-well tray. The day after, the old media were discarded, and the cells were challenged with compound-containing media for 6 h (CisPt: 30 and 60 μM; 1: 25 and 50 μM; 2: 1 and 2 μM; 3: 50 and 100 μM). An equal percentage of DMSO was added to control samples. The cells were thus washed two times with cold phosphate buffered saline (PBS) and digested with 700 μL of a homemade digest buffer (Tris 50 mM pH 8, NaCl 100 mM, EDTA 100 mM, and SDS 1%). The suspensions were moved to vials, and 400 μL of NaCl-saturated solution was added to them. The suspensions were thus vortexed and centrifuged at 12,000 rpm for 5 min. The supernatants were retrieved, added with 500 μL of 2-propanol, vortexed, and centrifuged at 12,000 rpm for 15 min to let DNA precipitate. […] DNA-bound Pt(II) was quantified through inductively coupled plasma-mass spectrometry (ICP-MS), and data were normalized to DNA content quantified with NanoDrop Site.
(§1) (A and C) Cells were seeded in complete medium (400,000 cells/well); the day after old media were discarded and cells were incubated for 6 h with media-containing compounds at the indicated concentrations, then intracellular protein were extracted, and intracellular ^195Pt was evaluated as ng ^195Pt over protein concentration (A) and further normalized vs the compounds’ working concentrations provided (C). […]

[2] = system: human triple-negative breast cancer cell line MDA-MB-231; parameters: method as in doi:10.1002/aoc.5455; settings: cited from earlier work
[3] = system: Calf Thymus DNA (CT-DNA); assay: DNA binding experiment: UV–vis absorption with CT-DNA; settings: complex 50 μM, PBS pH 7.4, increasing CT-DNA
Description: In a quartz cuvette (path length 1 cm), the UV–vis spectra were recorded of a PBS buffer solution (pH 7.4)-containing complex (1, 2, or 3, 50 μM, 0.5% DMF). The UV–vis absorption spectra were successively recorded following each addition of aliquots of Calf Thymus DNA (CT-DNA, 50 μM) after an equilibration time of 1 h.[32],[33]

[4] = Experimental measurement of LogPow by RP-HPLC; assay type: physicochemical; settings: for logPow^exp: RP-HPLC, water/methanol 80/20, 25 °C; for logPow (approximate): theoretical and experimental values in agreement
Description: Reverse phase high performance liquid chromatography (RP-HPLC) analysis was performed to correlate the hydrophobicity of the complexes with their retention time.

[5] = Stability in solution followed by absorption spectra over time; assay type: physicochemical; settings: for fate in aqueous environment (aquation): DMSO/buffer 0.5% v/v pH 7.4, within 24 h, spectra supported by TD-DFT; for solubility in aqueous medium: inferred from reduction of optical density over time
Description: Spectrofluorimetric-grade solvents were used for the photophysical investigations. The buffer solution (pH 7.4) was prepared by dissolving one phosphate buffer saline table in 200 mL of water. Compounds 1–3 were dissolved in DMSO and then diluted to reach a final concentration of 1 × 10^–5 M in DMSO as well as DMSO/buffer 0.5% v/v. A PerkinElmer Lambda 900 spectrophotometer was employed to obtain the UV–visible absorption spectra, using 10 mm path-length quartz cuvettes.
The photophysical properties of 1–3 in DMSO have been previously discussed.[13],[35] In order to investigate the tendency of the Pt(II) complexes to undergo hydrolysis reactions giving the corresponding aqua-complexes, their stability in aqueous solution was monitored spectrophotometrically, acquiring the absorption profiles over time (t = 0, 3, 6, and 24 h). In particular, absorption spectra were registered by dissolving 1–3 in DMSO then diluted in buffer solution (DMSO 0.5% v/v). Moreover, in order to follow a possible aquation reaction with a slower kinetics, absorption spectra were recorded dissolving 1–3 in DMSO containing a low water content, by using a nonanhydrous spectroscopic-grade solvent.

[6] = system: MDA-MB-231 cell line; assay: Intracellular Pt(II) content by ICP-MS; assay type: cell-based, human; settings: 6 h, Figure 6A
Description: First, 200,000 cells/well were seeded in complete medium in a 12-well tray. […] These concentrations correspond to IC50 and IC50/2 of each compound according to our previous work aimed at analyzing the cytotoxic performance of these Pt(II) complexes in the MDA.MB.231 cell line.[13] […] An equal percentage of DMSO was added to control samples. Cells were thus washed two times with cold PBS and lysed with 200 μL of a homemade lysis buffer (Tris 50 mM pH 7, NaCl 150 mM, NP40 1% v/v, protease, and phosphatase inhibitors 1% v/v) for 30 min at 4 °C. The intracellular Pt(II) amount was quantified through ICP-MS (BRUKER aurora M90 ICP-MS, MA, USA), and data were normalized to the total protein content evaluated via bicinchoninic acid assay.
as §1, with “(C). Cisplatin was used as the positive control. An equal amount of DMSO was supplied in each experimental condition. Data are presented as mean ± SD of three different experiments; when invisible, the error bar is included into the bar line.” for “(C).”

[7] = parameters: method as in PMID 21450275; settings: cited from earlier work

Compound: CCCC[N+](CCCC)(CCCC)CCCC.O=C1c2ccccc2C(=O)c2c1ccc1c2[O][Pt-]([c]2ccccc2-c2ccccn2)[O]1 (stereo not shown) [Complex 1, NBu4[(PhPy)Pt(Aliz)]]
accumulation of platinum in the DNA, corrected for working concentration ([1]; 2 μM 1 compared to cisplatin 60 and 150 μM 2, 6 h, Figure 6D): 10 fold
IC50 [2]: 1.9 ± 1.6 µM
UV–vis spectral change on addition of CT-DNA [3]: decrease of the band at 545 nm
logPow^exp [4]: 3.33
logPow (approximate) [4]: around 3
fate in aqueous environment (aquation) [5]: complete detachment of the (O^O) ligand
cytosolic localization (intracellular Pt) ([6]; compared to cisplatin and the other compounds): barely localizes into cytosol

chromatographic logP [4]: 1.87
Compound: O=C1c2ccccc2C(=O)c2c1ccc(O)c2O [alizarine]

Compound: Brc1c(Br)c(Br)c2c(c1Br)[O][Pt-]([c]1ccccc1-c1ccccn1)[O]2.CCCC[N+](CCCC)(CCCC)CCCC [Complex 2, NBu4[(PhPy)Pt(BrCat)]]
increase in DNA-bound ^195Pt compared to cisplatin 60 μM ([1]; highest tested concentration, 6 h, Figure 6B): 1.6 fold
IC50 [2]: 52.8 ± 3.9 µM
UV–vis spectral change on addition of CT-DNA [3]: decrease of the band at 545 nm
logPow^exp [4]: 4.53
logPow (approximate) [4]: ~4.5
fate in aqueous environment (aquation) [5]: converted to the corresponding mono-aquo complexes
solubility in aqueous medium [5]: poor solubility
intracellular protein-bound Pt compared to the highest cisplatin dose ([6]; highest tested concentration): 3 fold

Compound: N.N.O=C([O-])C1(C(=O)[O-])CCC1.[Pt+2] [carboplatin]
logPow^exp [7]: -2.30 ^a

Compound: N.N.O=C1c2ccccc2C(=O)c2c1ccc1c2[O][Pt][O]1 [Complex 3, [(NH3)2Pt(Aliz)]]
IC50 [2]: 127 ± 2.7 µM
UV–vis spectral change on addition of CT-DNA [3]: decrease of the band at 545 nm
logPow^exp [4]: 0.47
fate in aqueous environment (aquation) [5]: converted to the corresponding mono-aquo complexes
solubility in aqueous medium [5]: poor solubility
